{"source": "patent US8983257B2", "about": "“Therapeutic light delivery apparatus, method, and system” (Nomir Medical Technologies, Inc., priority 2002, dated 2015)", "type_in_all_cases": "cell-based, Staphylococcus aureus", "key": {"[1]": {"system": "MRSA", "experiment": "MRSA/antimicrobial potentiation Experiment 1: CFU with or without 30 μg/ml methicillin, laser dosages A1 to H1", "details": "for fewer CFU in the laser treated samples compared to the untreated controls: methicillin plates (30 μg/ml)", "method": "Four separate experiments have been performed.\nEight different laser dosages were used to treat a saline-suspension of logarithmically growing MRSA, labeled A1 to H1.\n(§1) The treated and a control untreated suspension were diluted and plated in triplicate on trypic soy agar with or without 30 μg/ml methicillin.\n(§2) After 24 hrs of growth at 37° C. colonies were counted.\nCFU (colony forming units) were compared between the plates with and without methicillin for both control (untreated) and treated MRSA."}, "[2]": {"system": "MRSA", "experiment": "MRSA/antimicrobial potentiation Experiment 2: CFU with or without 30 μg/ml methicillin, laser dosages A2 to H2", "details": "for Fold increase in methicillin sensitivity: 30 μg/ml methicillin", "method": "Eight different laser dosages based on an effective dose established in experiment 1 and previously were used to treat a saline-suspension of logarithmically growing MRSA, labeled A2 to H2.\nas §1, §2"}, "[3]": {"system": "MRSA", "experiment": "MRSA CFU count with methicillin after sub-lethal NIMELS laser (Example X)", "details": "methicillin at resistant MIC just below effectiveness level", "source_text": "The following illustrates the general antibacterial methods according to the invention, using a MRSA model for the in vitro Experiments V and VIII-XII.\na) μ1 is sub-lethal dosimetry from the NIMEL laser system on MRSA as a control and;"}, "[4]": {"system": "MRSA", "experiment": "MRSA/antimicrobial potentiation Experiment 3: CFU with or without 30 μg/ml methicillin, laser dosages A3 to H3", "details": "for Fold increase in methicillin sensitivity: 30 μg/ml methicillin", "method": "Eight different laser dosages based on an effective dose established in experiments 1 and 2 and previously were used to treat a saline-suspension of logarithmically growing MRSA, labeled A3 to H3.\n[…] After 24 hrs of growth at 37° C. colonies were counted."}, "[5]": {"system": "MRSA", "experiment": "MRSA/antimicrobial potentiation Experiment 4: CFU with or without methicillin, penicillin G or erythromycin, groups A4 to F4", "details": "for CFU: agar with 30 μg/ml methicillin", "text": "Two different laser dosages based on an effective dose established in previous experiments were used to treat a saline-suspension of logarithmically growing MRSA, labeled A4 to F4."}}, "note": "“And” between values parts separate entries of the source, which are not always exact repeats. Identical values can stand only once. “Also recorded” adds a separate entry of the source.", "data": [{"smiles": "COc1cccc(OC)c1C(=O)N[C@@H]1C(=O)N2[C@@H]1SC(C)(C)[C@@H]2C(=O)O", "note": "[Methicillin]", "values": [{"measurement": "AVG (CFU)", "setting": "[1]; Exp (laser treated), laser dosage F1, with 30 μg/ml methicillin", "value": 197, "unit": "CFU"}, {"measurement": "fewer CFU in the laser treated samples compared to the untreated controls", "setting": "[1]; condition A1", "value": 30, "unit": "%"}, {"measurement": "fewer CFU in the laser treated samples compared to the untreated controls", "setting": "[1]; condition B1", "value": 33, "unit": "%"}, {"measurement": "fewer CFU in the laser treated samples compared to the untreated controls", "setting": "[1]; condition C1", "value": 67, "unit": "%"}, {"measurement": "sensitization of MRSA by laser treatment (in words)", "setting": "[1]; treatments performed on sample A1, B1 and C1", "value": "sensitized the MRSA to the effects of methicillin"}, {"measurement": "CFU AVG", "setting": "[2]; A2, Exp (laser treated), plates with 30 μg/ml methicillin", "value": 41}, {"measurement": "effectiveness of methicillin in laser treated samples (in words)", "setting": "[2]; CFU on plates with and without 30 μg/ml methicillin, groups A2 to H2", "value": "significant increase in the effectiveness of methicillin in all laser treated samples with the exception of A2 and B2"}, {"measurement": "CFU AVG", "setting": "[2]; D2, Cont (untreated suspension), plates with 30 μg/ml methicillin", "value": 52}, {"measurement": "CFU AVG", "setting": "[2]; D2, Exp (laser treated), plates with 30 μg/ml methicillin", "value": 2.3}, {"measurement": "CFU AVG", "setting": "[2]; E2, Exp (laser treated), plates with 30 μg/ml methicillin", "value": 2.7}, {"measurement": "CFU AVG", "setting": "[2]; F2, Cont (untreated suspension), plates with 30 μg/ml methicillin", "value": 71}, {"measurement": "CFU AVG", "setting": "[2]; G2, Exp (laser treated), plates with 30 μg/ml methicillin", "value": 8.3}, {"measurement": "CFU", "setting": "[2]; H2, Cont (untreated suspension), plates with 30 μg/ml methicillin, single plates", "value": 82}, {"measurement": "Fold increase in methicillin sensitivity", "setting": "[2]; laser dosage grouping A2", "value": 0.84}, {"measurement": "Fold increase in methicillin sensitivity", "setting": "[2]; laser dosage grouping B2", "value": 0.91}, {"measurement": "Fold increase in methicillin sensitivity", "setting": "[2]; laser dosage grouping C2", "value": 3.20}, {"measurement": "Fold increase in methicillin sensitivity", "setting": "[2]; laser dosage grouping D2", "value": 2.44}, {"measurement": "Fold increase in methicillin sensitivity", "setting": "[2]; laser dosage grouping E2", "value": 4.33}, {"measurement": "Fold increase in methicillin sensitivity", "setting": "[2]; laser dosage grouping F2", "value": 2.13}, {"measurement": "Fold increase in methicillin sensitivity", "setting": "[2]; laser dosage grouping G2", "value": 3.47}, {"measurement": "Fold increase in methicillin sensitivity", "setting": "[2]; laser dosage grouping H2", "value": 1.62}, {"measurement": "effect of methicillin after sub-lethal NIMELS irradiation on growth of MRSA colonies (in words)", "setting": "[3]", "value": "potentiated by sub-lethal NIMELS dosimetry; also recorded: produces a deleterious effect after sub-lethal NIMEL irradiation on normal growth of MRSA colonies"}, {"measurement": "CFU AVG", "setting": "[4]; B3, Exp (laser treated), plates with 30 μg/ml methicillin", "value": 19}, {"measurement": "effectiveness of methicillin in laser treated samples (in words)", "setting": "[4]; CFU on plates with and without 30 μg/ml methicillin, groups A3 to H3", "value": "significant increase in the effectiveness of methicillin in all laser treated samples"}, {"measurement": "CFU", "setting": "[4]; D3, Cont (untreated suspension), plates with 30 μg/ml methicillin, single plates", "value": 58}, {"measurement": "CFU AVG", "setting": "[4]; D3, Exp (laser treated), plates with 30 μg/ml methicillin", "value": 3.6}, {"measurement": "CFU AVG", "setting": "[4]; F3, Exp (laser treated), plates with 30 μg/ml methicillin", "value": 9.8}, {"measurement": "CFU AVG", "setting": "[4]; G3, Exp (laser treated), plates with 30 μg/ml methicillin", "value": 8.4}, {"measurement": "CFU AVG", "setting": "[4]; H3, Exp (laser treated), plates with 30 μg/ml methicillin", "value": 8.4}, {"measurement": "Fold increase in methicillin sensitivity", "setting": "[4]; laser dosage grouping A3", "value": 1.98}, {"measurement": "Fold increase in methicillin sensitivity", "setting": "[4]; laser dosage grouping B3", "value": 1.62}, {"measurement": "Fold increase in methicillin sensitivity", "setting": "[4]; laser dosage grouping C3", "value": 1.91}, {"measurement": "Fold increase in methicillin sensitivity", "setting": "[4]; laser dosage grouping D3", "value": 2.59}, {"measurement": "Fold increase in methicillin sensitivity", "setting": "[4]; laser dosage grouping E3", "value": 2.09}, {"measurement": "Fold increase in methicillin sensitivity", "setting": "[4]; laser dosage grouping F3", "value": 2.08}, {"measurement": "Fold increase in methicillin sensitivity", "setting": "[4]; laser dosage grouping G3", "value": 3.16}, {"measurement": "Fold increase in methicillin sensitivity", "setting": "[4]; laser dosage grouping H3", "value": 2.97}, {"measurement": "CFU", "setting": "[5]; Group A4, Cont (no laser), replicate plates 1-5, 24 hrs 37° C.", "value": "97 CFU and 90 CFU"}, {"measurement": "CFU", "setting": "[5]; Group A4, Exp (laser treated), replicate plates 1-5", "value": "37 CFU and 33 CFU and 36 CFU (2×) and 39 CFU"}, {"measurement": "CFU", "setting": "[5]; Group B4, Exp (laser treated), replicate plates 1-5", "value": "46 CFU (2×) and 34 CFU and 42 CFU and 44 CFU"}, {"measurement": "synergy or potentiation with NIMELS in growth inhibition of MRSA colonies (in words)", "setting": "[5]; sub-lethal NIMELS dosimetry, bar chart figure", "value": "synergistic effects; also recorded: potentiated by sub-lethal NIMELS dosimetry"}, {"measurement": "reversal of MRSA resistance in vitro by dual wavelength NOVEON laser (in words)", "setting": "[5]; temperature levels not lethal to the organism", "value": "successful reversal of MRSA resistance"}]}]}
